One molecule from US4552879A, “Benzoheterocyclic compounds and pharmaceutical composition thereof” (Otsuka Pharmaceutical Co., Ltd., priority 1980, dated 1985) can be followed below.

Structures are written as SMILES. In brackets after ≈: the same amount, converted by molar mass.

Type in all cases: cell-based
For one test, the system named is Bacillus anthracis. As to the kind of experiment: microbe, parasite or virus in culture.
Test [1] deals with Staphylococcus aureus ATCC 12692. As to the kind of experiment: Minimum inhibitory concentration, serial dilution method on agar plate.
The test system of test [2] is Staphylococcus aureus Newmann. The description is as above.
Test [3] concerns Staphyloccus aureus Smith. Described as above.
Test [4] concerns Staphylococcus aureus IFO 3761. The description is as above.
Test [5] has as its system Staphylococcus aureus No. 286. Described as above.
The test system of test [6] is Staphylococcus aureus 50774. Described as above.
Test [7] has as its system Micrococcus flavus ATCC 10240a. The description is as above. The note with it: ATCC10240A.
For test [8], the system named is Peptococcus asaccharolyticus WAL 3218. Described as above. The note with it: Peptoniphilus asaccharolyticus.

With `CC1CCc2c(N3CCC(O)CC3)c(F)cc3c(=O)c(C(=O)O)cn1c23` (stereo not drawn) [Compound 1, 9-Fluoro-8-(4-hydroxy-1-piperidyl)-5-methyl-6,7-dihydro-1-oxo-1H,5H-benzo[ij]quinolizine-2-carboxylic acid], the “Minimum Inhibitory Concentration” value (with Bacillus anthracis (1×10^6 cells/ml); in test [1] (1×10^6 cells/ml); in test [3] (1×10^6 cells/ml); in test [6] (1×10^6 cells/ml)) was 0.05 µg/mL throughout. Moreover, the MIC in the test with Bacillus anthracis (Bacillus anthracis, read-out: Minimum Inhibitory Concentration) was determined as 0.05 µg/mL (≈ 0.139 µM); in test [1] (Staphylococcus aureus, ATCC12692, 1×10^8 cells/ml), 0.05 µg/mL (≈ 0.139 µM); in [2] (1×10^6 cells/ml), 0.024 µg/mL (≈ 0.0666 µM); in test [2] (1×10^8 cells/ml) it was 0.05 µg/mL (≈ 0.139 µM); in test [3] (1×10^8 cells/ml) it was 0.05 µg/mL (≈ 0.139 µM); in test [4] (IFO3761, 1×10^6 cells/ml), 0.024 µg/mL (≈ 0.0666 µM). Moreover, the MIC in test [4] (IFO3761, 1×10^8 cells/ml) was 0.1 µg/mL (≈ 0.277 µM); in test [5] (NO.286, 1×10^6 cells/ml), 0.05 µg/mL (≈ 0.139 µM); in test [5] (NO.286, 1×10^8 cells/ml), 0.1 µg/mL (≈ 0.277 µM); in [6] (Staphylococcus aureus, 50774, 1×10^8 cells/ml) it was 0.05 µg/mL (≈ 0.139 µM); in test [7] (1×10^6 cells/ml), 0.2 µg/mL (≈ 0.555 µM); in [7] (1×10^8 cells/ml) it was 0.39 µg/mL (≈ 1.08 µM). The MIC in test [8] (WAL3218, 1×10^6 cells/ml) is 0.78 µg/mL (≈ 2.16 µM); in [8] (WAL3218, 1×10^8 cells/ml), 1.56 µg/mL (≈ 4.33 µM).
